System: maternal HIV+ sera (antibodies)
Experiment: RIA / ELISA binding of maternal HIV+ sera to gp120 and gp41 peptides (Example 3)
Design: species or system human
Experimental: Radioimmunoassay (RIA) and enzyme-linked immunosorbent assay (ELISA) were performed by standard methodologies [E. Engvall, Meth. Immunol., 70:419-439 (1980); S. K. Pierce et al, J. Exp. Med., 144:1254-1262 (1976)]. Peptides were dissolved in 0.05M carbonate-bicarbonate buffer (pH 9.6) at a concentration of 10 μg/ml. Fifty μl (500 ng) of the peptides were immobilized in 96 well polyvinylchloride plates (Dynatech Laboratories, Inc.) overnight at 4° C. Plates were washed and non-specific sites were blocked with PBS containing 1% BSA overnight at 4° C.
Dilutions of HIV positive maternal sera were made in blocking buffer at dilutions of 1:50 and 1:500 and incubated in peptide coated plates overnight at 4° C. Plates were washed with PBS and incubated with 75,000 cpm of ^125 I-labelled goat anti-human IgG. The antibody was iodinated by a chloramine T method [W. V. Williams et al, Proc. Natl. Acad. Sci. USA, 85:6488-6492 (1988)]. Plates were washed, dried and counted in a gamma counter to measure specific binding. Normal human serum (i.e., HIV seronegative) was used as a control.
Alternatively, ELISA assays were performed in polystyrene plates (Dynatech Laboratories, Inc) in which 0.05% Tween 20 (Sigma Chemical Co.) was included in the washing, blocking and dilution buffers. The secondary antibody used was goat […] Ig conjugated to horseradish peroxidase (HRP) (Sigma Chemical Co). The substrate used for color development was 3,3',5,5' tetramethyl-benzidine dihydrochloride (TMB) (Sigma Chemical Co). Absorbance of samples was measured in a Dynatech MR5000 (Dynatech Laboratories, Inc.) plate reader and expressed as an optical density at wavelength of 450 nm (OD450).
The following key is used for the designation of specific binding of the maternal sera samples to the peptides: The minus sign, -, is equivalent to the specific OD450 or cpm of sera sample binding to peptide divided by the specific OD450 or cpm of NHS sample binding to peptide, which value is less than 2. The plus sign, +, is equivalent to the specific OD450 or cpm of sera sample binding to peptide divided by the specific OD450 or cpm of NHS sample binding to peptide, which value is between 2 to 3.
Specific binding is defined as the difference between the OD450 or cpm of sera to wells with peptide and the OD450 or cpm of sera to wells without peptide.
Comparisons of number of peptides which bound maternal serum samples were made between the transmission group and the nontransmission group. The data was analyzed using the unpaired student's test. For the determination of differences in the binding of specific peptides between transmission and non-transmission groups, the Spearman's rank-order correlation test was performed.

[1] = Serum No. 1, Non-Transmission Group
[2] = Serum No. 2, Non-Transmission Group
[3] = Serum No. 3, Non-Transmission Group
[4] = Serum No. 4, Transmission Group
[5] = Serum No. 5, Transmission Group
[6] = Serum No. 6, Non-Transmission Group
[7] = Serum No. 7, Non-Transmission Group
[8] = Serum No. 8, Non-Transmission Group
[9] = Serum No. 9, Non-Transmission Group
[10] = Serum No. 10, Transmission Group
[11] = Serum No. 11, Non-Transmission Group
[12] = Serum No. 12, Non-Transmission Group
[13] = Serum No. 13, Transmission Group
[14] = Serum No. 14, Transmission Group
[15] = Serum No. 15, Transmission Group
[16] = Serum No. 16, Non-Transmission Group
[17] = Serum No. 17, Non-Transmission Group
[18] = Serum No. 18, Non-Transmission Group
[19] = Serum No. 19, Transmission Group
[20] = Serum No. 20, Non-Transmission Group

Row | Sequence | Binding of maternal HIV+ serum to peptide (sera/NHS ratio) [1] | Binding of maternal HIV+ serum to peptide (sera/NHS ratio) [2] | Binding of maternal HIV+ serum to peptide (sera/NHS ratio) [3] | Binding of maternal HIV+ serum to peptide (sera/NHS ratio) [4] | Binding of maternal HIV+ serum to peptide (sera/NHS ratio) [5] | Binding of maternal HIV+ serum to peptide (sera/NHS ratio) [6] | Binding of maternal HIV+ serum to peptide (sera/NHS ratio) [7] | Binding of maternal HIV+ serum to peptide (sera/NHS ratio) [8] | Binding of maternal HIV+ serum to peptide (sera/NHS ratio) [9] | Binding of maternal HIV+ serum to peptide (sera/NHS ratio) [10] | Binding of maternal HIV+ serum to peptide (sera/NHS ratio) [11] | Binding of maternal HIV+ serum to peptide (sera/NHS ratio) [12] | Binding of maternal HIV+ serum to peptide (sera/NHS ratio) [13] | Binding of maternal HIV+ serum to peptide (sera/NHS ratio) [14] | Binding of maternal HIV+ serum to peptide (sera/NHS ratio) [15] | Binding of maternal HIV+ serum to peptide (sera/NHS ratio) [16] | Binding of maternal HIV+ serum to peptide (sera/NHS ratio) [17] | Binding of maternal HIV+ serum to peptide (sera/NHS ratio) [18] | Binding of maternal HIV+ serum to peptide (sera/NHS ratio) [19] | Binding of maternal HIV+ serum to peptide (sera/NHS ratio) [20] | other results
1 | KLICTTQVPWNASWS [Peptide 123] | + (which value is between 2 to 3) | - (specific OD450 or cpm of sera sample binding to peptide divided by the specific OD450 or cpm of NHS sample binding to peptide, which value is less than 2) | - (specific OD450 or cpm of sera sample binding to peptide divided by the specific OD450 or cpm of NHS sample binding to peptide, which value is less than 2) | - (specific OD450 or cpm of sera sample binding to peptide divided by the specific OD450 or cpm of NHS sample binding to peptide, which value is less than 2) | - (specific OD450 or cpm of sera sample binding to peptide divided by the specific OD450 or cpm of NHS sample binding to peptide, which value is less than 2) | - (specific OD450 or cpm of sera sample binding to peptide divided by the specific OD450 or cpm of NHS sample binding to peptide, which value is less than 2) | - (specific OD450 or cpm of sera sample binding to peptide divided by the specific OD450 or cpm of NHS sample binding to peptide, which value is less than 2) | - (specific OD450 or cpm of sera sample binding to peptide divided by the specific OD450 or cpm of NHS sample binding to peptide, which value is less than 2) | - (specific OD450 or cpm of sera sample binding to peptide divided by the specific OD450 or cpm of NHS sample binding to peptide, which value is less than 2) | - (specific OD450 or cpm of sera sample binding to peptide divided by the specific OD450 or cpm of NHS sample binding to peptide, which value is less than 2) | - (specific OD450 or cpm of sera sample binding to peptide divided by the specific OD450 or cpm of NHS sample binding to peptide, which value is less than 2) | - (specific OD450 or cpm of sera sample binding to peptide divided by the specific OD450 or cpm of NHS sample binding to peptide, which value is less than 2) | - (specific OD450 or cpm of sera sample binding to peptide divided by the specific OD450 or cpm of NHS sample binding to peptide, which value is less than 2) | - (specific OD450 or cpm of sera sample binding to peptide divided by the specific OD450 or cpm of NHS sample binding to peptide, which value is less than 2) | - (specific OD450 or cpm of sera sample binding to peptide divided by the specific OD450 or cpm of NHS sample binding to peptide, which value is less than 2) | - (specific OD450 or cpm of sera sample binding to peptide divided by the specific OD450 or cpm of NHS sample binding to peptide, which value is less than 2) | - (specific OD450 or cpm of sera sample binding to peptide divided by the specific OD450 or cpm of NHS sample binding to peptide, which value is less than 2) | - (specific OD450 or cpm of sera sample binding to peptide divided by the specific OD450 or cpm of NHS sample binding to peptide, which value is less than 2) | - (specific OD450 or cpm of sera sample binding to peptide divided by the specific OD450 or cpm of NHS sample binding to peptide, which value is less than 2) | - (specific OD450 or cpm of sera sample binding to peptide divided by the specific OD450 or cpm of NHS sample binding to peptide, which value is less than 2) | –
2 | KQFINMWQEVGKAMYAPP [Peptide B138] | + (which value is between 2 to 3) | + (which value is between 2 to 3) | - (specific OD450 or cpm of sera sample binding to peptide divided by the specific OD450 or cpm of NHS sample binding to peptide, which value is less than 2) | + (which value is between 2 to 3) | + (which value is between 2 to 3) | + (which value is between 2 to 3) | ++ (which value is greater than 3) | ++ (which value is greater than 3) | - (specific OD450 or cpm of sera sample binding to peptide divided by the specific OD450 or cpm of NHS sample binding to peptide, which value is less than 2) | - (specific OD450 or cpm of sera sample binding to peptide divided by the specific OD450 or cpm of NHS sample binding to peptide, which value is less than 2) | - (specific OD450 or cpm of sera sample binding to peptide divided by the specific OD450 or cpm of NHS sample binding to peptide, which value is less than 2) | - (specific OD450 or cpm of sera sample binding to peptide divided by the specific OD450 or cpm of NHS sample binding to peptide, which value is less than 2) | - (specific OD450 or cpm of sera sample binding to peptide divided by the specific OD450 or cpm of NHS sample binding to peptide, which value is less than 2) | - (specific OD450 or cpm of sera sample binding to peptide divided by the specific OD450 or cpm of NHS sample binding to peptide, which value is less than 2) | - (specific OD450 or cpm of sera sample binding to peptide divided by the specific OD450 or cpm of NHS sample binding to peptide, which value is less than 2) | - (specific OD450 or cpm of sera sample binding to peptide divided by the specific OD450 or cpm of NHS sample binding to peptide, which value is less than 2) | - (specific OD450 or cpm of sera sample binding to peptide divided by the specific OD450 or cpm of NHS sample binding to peptide, which value is less than 2) | - (specific OD450 or cpm of sera sample binding to peptide divided by the specific OD450 or cpm of NHS sample binding to peptide, which value is less than 2) | - (specific OD450 or cpm of sera sample binding to peptide divided by the specific OD450 or cpm of NHS sample binding to peptide, which value is less than 2) | - (specific OD450 or cpm of sera sample binding to peptide divided by the specific OD450 or cpm of NHS sample binding to peptide, which value is less than 2) | Number of maternal sera binding to peptide (20 maternal sera): Seven; Number of binding maternal sera from the transmission group (vertical transmission group (7 sera)): two

Source: patent US5556744A, “Methods and compositions for diagnosing and treating certain HIV infected patients” (The Trustees of the University of Pennsylvania, priority 1994, dated 1996)
